Test results published in patent US11986471B2, “Compounds and methods of use” (Tango Therapeutics, Inc., priority 2018, dated 2024).

Tests used:
HAP1 MTAP-intact = assay: SDMA in-cell western assay, HAP1 MTAP-intact cell line; type: cell-based; conditions: Homo sapiens
Text: Table 1a also indicates IC50 values in an MTAP-isogenic cell line pair for exemplary compounds in an SDMA in-cell western assay (columns 7-8). HAP1 MTAP-intact is a cell line in which endogenous levels of MTAP are expressed, and HAP1 MTAP-deleted is an MTAP-null cell line. […] Compounds with a ratio in the SDMA in-cell western assay of equal to or greater than 3 fold are considered MTAP-selective.

HAP1 MTAP-deleted = assay: SDMA in-cell western assay, HAP1 MTAP-deleted cell line; type: cell-based; conditions: for IC50: Homo sapiens, HAP1 MTAP-deleted cell line; for MTAP Intact/Deleted Ratio: IC50 ratio HAP1 MTAP-intact / HAP1 MTAP-deleted
Text: Table 1a also indicates IC50 values in an MTAP-isogenic cell line pair for exemplary compounds in an SDMA in-cell western assay (columns 7-8). HAP1 MTAP-intact is a cell line in which endogenous levels of MTAP are expressed, and HAP1 MTAP-deleted is an MTAP-null cell line.

PRMT5 [1] = target: T1, PRMT5 (Homo sapiens, UniProt O14744); assay: PRMT5 IC50 assay in the presence of SAM as cofactor; type: biochemical
T1 construct: purchased Viva (custom protein)
T1 sequence (O14744 whole entry): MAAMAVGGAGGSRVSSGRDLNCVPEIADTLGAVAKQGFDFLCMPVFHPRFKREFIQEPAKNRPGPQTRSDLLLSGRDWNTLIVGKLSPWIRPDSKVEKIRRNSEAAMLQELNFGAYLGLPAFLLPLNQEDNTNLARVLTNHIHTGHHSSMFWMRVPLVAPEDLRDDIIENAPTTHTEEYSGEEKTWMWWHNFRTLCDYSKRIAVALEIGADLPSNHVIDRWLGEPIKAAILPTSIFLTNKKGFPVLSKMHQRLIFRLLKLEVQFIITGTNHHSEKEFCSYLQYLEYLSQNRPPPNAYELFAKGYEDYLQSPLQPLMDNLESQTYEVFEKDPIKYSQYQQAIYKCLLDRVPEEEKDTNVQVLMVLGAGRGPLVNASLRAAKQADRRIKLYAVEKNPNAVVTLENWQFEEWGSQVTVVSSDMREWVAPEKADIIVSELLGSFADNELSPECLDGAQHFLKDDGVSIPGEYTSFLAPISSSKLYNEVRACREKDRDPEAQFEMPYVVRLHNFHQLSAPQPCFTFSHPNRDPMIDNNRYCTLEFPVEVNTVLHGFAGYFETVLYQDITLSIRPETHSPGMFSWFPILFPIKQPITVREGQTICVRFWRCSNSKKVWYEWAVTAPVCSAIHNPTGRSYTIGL
T1 sequence (Q9BQA1 whole entry partner): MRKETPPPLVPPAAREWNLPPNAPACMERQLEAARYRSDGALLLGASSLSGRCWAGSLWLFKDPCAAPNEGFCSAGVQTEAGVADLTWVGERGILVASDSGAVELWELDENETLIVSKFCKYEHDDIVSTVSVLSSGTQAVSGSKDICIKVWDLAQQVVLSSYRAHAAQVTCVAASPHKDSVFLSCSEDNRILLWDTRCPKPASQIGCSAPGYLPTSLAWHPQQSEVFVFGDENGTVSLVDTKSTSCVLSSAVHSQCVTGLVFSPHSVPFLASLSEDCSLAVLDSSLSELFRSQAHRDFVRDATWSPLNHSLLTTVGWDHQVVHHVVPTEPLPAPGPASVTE
Method in brief: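 MTA-dependent versus SAM-dependent inhibition of human PRMT5 was assessed by IC50; conversion factors of 13.5 and 1.5 gave the corresponding Ki.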

PRMT5 [2] = target: T1, PRMT5; assay: PRMT5 IC50 assay in the presence of MTA as cofactor; type: biochemical; conditions: for IC50: PRMT5, MTA as cofactor
Method in brief: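 IC50 against PRMT5 determined with SAM as cofactor, with no cofactor, and with MTA as cofactor. Ki derived as IC50/1.5 for the SAM assay and IC50/13.5 for the MTA assay; SAM Ki to MTA Ki ratio also reported.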

PRMT5 [3] = target: T1, PRMT5; assay: PRMT5 IC50 assay with no cofactor; type: biochemical
Method in brief: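 Human PRMT5 inhibition, IC50 in μM; cofactor varied (SAM / MTA / none).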

[4] = ratio between the Ki in the presence of SAM and the Ki in the presence of MTA
[5] = ratio between Ki in the presence of SAM and Ki in the presence of MTA

With `Cc1ncoc1COc1ccc2c(c1)CCN(C[C@@H](O)CNC(=O)c1cc(Nc3cccnc3)nc(N3CCCCC3)c1)C2` [Compound 601] the IC50 (HAP1 MTAP-intact) was < 1 µM, the IC50 (HAP1 MTAP-deleted) was < 1 µM and the “MTAP Intact/Deleted Ratio” value (HAP1 MTAP-deleted) was “B* (an IC50 ratio greater than or equal to 3 fold but lower than 10 fold between the IC50 in the HAP1 MTAP-intact cell line and the HAP1 MTAP-deleted cell line)”. For the same molecule, the IC50 (PRMT5 [1]) was 0.05 to 0.5 µM, the IC50 (PRMT5 [2]) was < 0.05 µM and the “SAM/MTA Ratio” value (PRMT5 [2]; [4]) was “A (a Ki ratio greater than or equal to 10 fold between the Ki in the presence of SAM and the Ki in the presence of MTA)”. For the same molecule, the IC50 (PRMT5 [3]) was 0.5 to 5 µM.

In the case of `CC(=O)N1CC(Nc2cc(C(=O)NC[C@H](O)CN3CCc4c(ccc(OCc5cnco5)c4Cl)C3)nc(C(C)C)n2)C1` [Compound 342, (S)-6-((1-acetylazetidin-3-yl)amino)-N-(3-(5-chloro-6-(oxazol-5-ylmethoxy)-3,4-dihydroisoquinolin-2(1H)-yl)-2-hydroxypropyl)-2-isopropylpyrimidine-4-carboxamide], the IC50 (HAP1 MTAP-intact) is reported as ≥ 10 µM, the IC50 (HAP1 MTAP-deleted) is reported as < 1 µM and the “MTAP Intact/Deleted Ratio” value (HAP1 MTAP-deleted) is reported as “A* (an IC50 ratio greater than or equal to 10 fold between the IC50 in the HAP1 MTAP-intact cell line and the HAP1 MTAP-deleted cell line)”. For the same molecule, the IC50 (PRMT5 [1]) was 0.05 to 0.5 µM, the IC50 (PRMT5 [2]) was 0.05 to 0.5 µM and the “SAM/MTA Ratio” value (PRMT5 [2]; [5]) was “A (a Ki ratio greater than or equal to 10 fold between the Ki in the presence of SAM and the Ki in the presence of MTA)”. It also gave an IC50 (PRMT5 [3]; read-out: No Co-factor IC50) of 0.5 to 5 µM.

In the case of `CC(=O)N1CC(Nc2cc(C(=O)NC[C@H](O)CN3CCc4cc(OCc5ocnc5C)ccc4C3)nc(N3CCCCC3)n2)C1` [Compound 534, 6-[(1-acetylazetidin-3-yl)amino]-N-[(2S)-2-hydroxy-3-{6-[(4-methyl-1,3-oxazol-5-yl)methoxy]-1,2,3,4-tetrahydroisoquinolin-2-yl}propyl]-2-(piperidin-1-yl)pyrimidine-4-carboxamide], the IC50 (HAP1 MTAP-intact) is reported as 1 to 10 µM, the IC50 (HAP1 MTAP-deleted) is reported as < 1 µM and the “MTAP Intact/Deleted Ratio” value (HAP1 MTAP-deleted) is reported as “A* (an IC50 ratio greater than or equal to 10 fold between the IC50 in the HAP1 MTAP-intact cell line and the HAP1 MTAP-deleted cell line)”. The IC50 (PRMT5 [1]) was 0.05 to 0.5 µM, the IC50 (PRMT5 [2]) was < 0.05 µM and the “SAM/MTA Ratio” value (PRMT5 [2]; [4]) was “A (a Ki ratio greater than or equal to 10 fold between the Ki in the presence of SAM and the Ki in the presence of MTA)”. The IC50 (PRMT5 [3]) was 0.5 to 5 µM.

With `Cc1c(OCc2cnco2)ccc2c1CCN(C[C@@H](O)CNC(=O)c1ccnc(NC3CCN(S(C)(=O)=O)CC3)c1)C2` [Compound 386, (S)—N-(2-hydroxy-3-(5-methyl-6-(oxazol-5-ylmethoxy)-3N-dihydroisoquinolin-2(1H)-yl)propyl)-2-((1-(methylsulfonyl)piperidin-4-yl)amino)isonicotinamide] the IC50 (HAP1 MTAP-intact) was ≥ 10 µM, the IC50 (HAP1 MTAP-deleted) was 1 to 10 µM and the “MTAP Intact/Deleted Ratio” value (HAP1 MTAP-deleted) was “C* (an IC50 ratio of less than 3 fold between the IC50 in the HAP1 MTAP-intact cell line and the HAP1 MTAP-deleted cell line)”. The IC50 (PRMT5 [1]) was 0.05 to 0.5 µM, the IC50 (PRMT5 [2]) was 0.05 to 0.5 µM and the “SAM/MTA Ratio” value (PRMT5 [2]; [5]) was “A (a Ki ratio greater than or equal to 10 fold between the Ki in the presence of SAM and the Ki in the presence of MTA)”. It also gave an IC50 (PRMT5 [3]; read-out: No Co-factor IC50) of 0.5 to 5 µM.

In the case of `CCC(=O)N1CCN(c2nc(NC3COC3)cc(C(=O)NC[C@H](O)CN3CCc4cc(OCc5cnco5)ccc4C3)n2)CC1` [Compound 309, (S)—N-(2-hydroxy-3-(6-(oxazol-5-ylmethoxy)-3,4-dihydroisoquinolin-2(1H)-yl)propyl)-6-(oxetan-3-ylamino)-2-(4-propionylpiperazin-1-yl)pyrimidine-4-carboxamide], the IC50 (HAP1 MTAP-intact) is reported as ≥ 10 µM, the IC50 (HAP1 MTAP-deleted) is reported as 1 to 10 µM and the “MTAP Intact/Deleted Ratio” value (HAP1 MTAP-deleted) is reported as “C* (an IC50 ratio of less than 3 fold between the IC50 in the HAP1 MTAP-intact cell line and the HAP1 MTAP-deleted cell line)”. For the same molecule, the IC50 (PRMT5 [1]) was 0.05 to 0.5 µM, the IC50 (PRMT5 [2]) was 0.05 to 0.5 µM and the “SAM/MTA Ratio” value (PRMT5 [2]; [5]) was “A (a Ki ratio greater than or equal to 10 fold between the Ki in the presence of SAM and the Ki in the presence of MTA)”. The IC50 (PRMT5 [3]; read-out: No Co-factor IC50) was 0.5 to 5 µM.

In the case of `Cc1ncoc1COc1ccc2c(c1)CCN(C[C@@H](O)CNC(=O)c1cc(NC3COC3)nc(N3CCN(C)CC3)n1)C2` [Compound 387], the IC50 (HAP1 MTAP-intact) is reported as 1 to 10 µM, the IC50 (HAP1 MTAP-deleted) is reported as < 1 µM and the “MTAP Intact/Deleted Ratio” value (HAP1 MTAP-deleted) is reported as “B* (an IC50 ratio greater than or equal to 3 fold but lower than 10 fold between the IC50 in the HAP1 MTAP-intact cell line and the HAP1 MTAP-deleted cell line)”. The IC50 (PRMT5 [1]) was 0.05 to 0.5 µM, the IC50 (PRMT5 [2]) was 0.05 to 0.5 µM and the “SAM/MTA Ratio” value (PRMT5 [2]; [5]) was “A (a Ki ratio greater than or equal to 10 fold between the Ki in the presence of SAM and the Ki in the presence of MTA)”. It also gave an IC50 (PRMT5 [3]; read-out: No Co-factor IC50) of 0.5 to 5 µM.

In the case of `COCCN(C)c1cc(C(=O)NC[C@H](O)CN2CCc3c(ccc(OCc4ocnc4C)c3C)C2)cc(NC2CCC2)n1` [Compound 437, 2-(cyclobutylamino)-N-[(2S)-2-hydroxy-3-{5-methyl-6-[(4-methyl-1,3-oxazol-5-yl)methoxy]-1,2,3,4-tetrahydroisoquinolin-2-yl}propyl]-6-[(2-methoxyethyl)(methyl)amino]pyridine-4-carboxamide], the IC50 (HAP1 MTAP-intact) is reported as ≥ 10 µM, the IC50 (HAP1 MTAP-deleted) is reported as 1 to 10 µM and the “MTAP Intact/Deleted Ratio” value (HAP1 MTAP-deleted) is reported as “B* (an IC50 ratio greater than or equal to 3 fold but lower than 10 fold between the IC50 in the HAP1 MTAP-intact cell line and the HAP1 MTAP-deleted cell line)”. The IC50 (PRMT5 [1]) was 0.05 to 0.5 µM, the IC50 (PRMT5 [2]) was 0.05 to 0.5 µM and the “SAM/MTA Ratio” value (PRMT5 [2]; [4]) was “A (a Ki ratio greater than or equal to 10 fold between the Ki in the presence of SAM and the Ki in the presence of MTA)”. For the same molecule, the IC50 (PRMT5 [3]) was ≥ 5 µM.

In the case of `CC(=O)N1CCC(Nc2cncc(C(=O)NC[C@H](O)CN3CCc4cc(OCc5cnco5)ccc4C3)c2)CC1` [Compound 549, (S)-5-((1-acetylpiperidin-4-yl)amino)-N-(2-hydroxy-3-(6-(oxazol-5-ylmethoxy)-3,4-dihydroisoquinolin-2(1H)-yl)propyl)nicotinamide], the IC50 (HAP1 MTAP-intact) is reported as ≥ 10 µM, the IC50 (HAP1 MTAP-deleted) is reported as ≥ 10 µM and the “MTAP Intact/Deleted Ratio” value (HAP1 MTAP-deleted) is reported as “C* (an IC50 ratio of less than 3 fold between the IC50 in the HAP1 MTAP-intact cell line and the HAP1 MTAP-deleted cell line)”. For the same molecule, the IC50 (PRMT5 [1]) was 0.05 to 0.5 µM, the IC50 (PRMT5 [2]) was 0.05 to 0.5 µM and the “SAM/MTA Ratio” value (PRMT5 [2]; [4]) was “A (a Ki ratio greater than or equal to 10 fold between the Ki in the presence of SAM and the Ki in the presence of MTA)”. For the same molecule, the IC50 (PRMT5 [3]) was 0.5 to 5 µM.

With `CC(=O)N1CC(Nc2cc(C(=O)NC[C@H](O)CN3CCc4cc(OCc5ocnc5C)c(F)cc4C3)cc(N3CCCCC3)n2)C1` [Compound 638] the IC50 (HAP1 MTAP-intact) was 1 to 10 µM, the IC50 (PRMT5 [1]) was 0.05 to 0.5 µM and the IC50 (PRMT5 [2]) was 0.05 to 0.5 µM. The “SAM/MTA Ratio” value (PRMT5 [2]; [5]) was “A (a Ki ratio greater than or equal to 10 fold between the Ki in the presence of SAM and the Ki in the presence of MTA)” and the IC50 (PRMT5 [3]; read-out: No Co-factor IC50) was 0.05 to 0.5 µM.

In the case of `CC(=O)N1CCC(Nc2cc(C(=O)NC[C@H](O)CN3CCc4c(C)c(OCc5ocnc5C)cc(F)c4C3)ccn2)CC1` [Compound 642, 2-[(1-acetyl-4-piperidyl)amino]-N-[(2S)-3-[8-fluoro-5-methyl-6-[(4-methyloxazol-5-yl)methoxy]-3,4-dihydro-1H-isoquinolin-2-yl]-2-hydroxy-propyl]pyridine-4-carboxamide], the IC50 (HAP1 MTAP-intact) is reported as ≥ 10 µM, the IC50 (PRMT5 [1]) is reported as 0.05 to 0.5 µM and the IC50 (PRMT5 [2]) is reported as 0.05 to 0.5 µM. For the same molecule, the “SAM/MTA Ratio” value (PRMT5 [2]; [5]) was “A (a Ki ratio greater than or equal to 10 fold between the Ki in the presence of SAM and the Ki in the presence of MTA)” and the IC50 (PRMT5 [3]; read-out: No Co-factor IC50) was 0.5 to 5 µM.

With `CC(=O)N1CCC(Nc2cc(C(=O)NC[C@H](O)CN3CCc4cc(OCc5ocnc5C)ccc4C3)cc(C3CCCCC3)n2)CC1` [Compound 641, (S)-2-((1-acetylpiperidin-4-yl)amino)-6-cyclohexyl-N-(2-hydroxy-3-(6-((4-methyloxazol-5-yl)methoxy)-3,4-dihydroisoquinolin-2(1H)-yl)propyl)isonicotinamide] the IC50 (HAP1 MTAP-intact) was < 1 µM, the IC50 (PRMT5 [1]) was 0.05 to 0.5 µM and the IC50 (PRMT5 [2]) was < 0.05 µM. For the same molecule, the “SAM/MTA Ratio” value (PRMT5 [2]; [5]) was “A (a Ki ratio greater than or equal to 10 fold between the Ki in the presence of SAM and the Ki in the presence of MTA)” and the IC50 (PRMT5 [3]; read-out: No Co-factor IC50) was 0.5 to 5 µM.
